pIC50: −log10 of the molar value.
Experiments:
Assay type in all cases: biochemical
human Yes1 enzyme = target: T1, human Yes1 enzyme (Homo sapiens, UniProt P07947); assay: Yes1 enzyme inhibitory activity (time-resolved fluorometry, biotinylated peptide phosphorylation); conditions: read-out: YES_IC50
T1 construct: made in house
How it was run: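 Inhibition was expressed against a compound-free control to give IC50, using TR-FRET read-out (Eu-cryptate anti-pTyr antibody, streptavidin-XL665).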

human Src enzyme = target: T2, human Src enzyme (Homo sapiens, UniProt P12931); assay: Src enzyme inhibitory activity (time-resolved fluorometry, biotinylated peptide phosphorylation); conditions: read-out: SRC_IC50
T2 construct: purchased Carna Biosciences, Inc. 08-173
How it was run: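 Compounds were tested for blocking tyrosine phosphorylation of a biotinylated peptide substrate by recombinant human Src. Phosphorylated product was quantified by time-resolved fluorometry using europium cryptate and XL665 conjugates, and IC50 was calculated against the compound-free control.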

human Lck enzyme = target: T3, human Lck enzyme (Homo sapiens, UniProt P06239); assay: Lck enzyme inhibitory activity (time-resolved fluorometry, biotinylated peptide phosphorylation); conditions: read-out: LCK_IC50
T3 construct: purchased Carna Biosciences, Inc. 08-170
How it was run: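 Readout pairs a europium cryptate-labelled anti-phosphotyrosine antibody with XL665-streptavidin, measured by time-resolved fluorescence. IC50 derived from percent inhibition against untreated controls.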

T2 sequence (P12931 whole entry): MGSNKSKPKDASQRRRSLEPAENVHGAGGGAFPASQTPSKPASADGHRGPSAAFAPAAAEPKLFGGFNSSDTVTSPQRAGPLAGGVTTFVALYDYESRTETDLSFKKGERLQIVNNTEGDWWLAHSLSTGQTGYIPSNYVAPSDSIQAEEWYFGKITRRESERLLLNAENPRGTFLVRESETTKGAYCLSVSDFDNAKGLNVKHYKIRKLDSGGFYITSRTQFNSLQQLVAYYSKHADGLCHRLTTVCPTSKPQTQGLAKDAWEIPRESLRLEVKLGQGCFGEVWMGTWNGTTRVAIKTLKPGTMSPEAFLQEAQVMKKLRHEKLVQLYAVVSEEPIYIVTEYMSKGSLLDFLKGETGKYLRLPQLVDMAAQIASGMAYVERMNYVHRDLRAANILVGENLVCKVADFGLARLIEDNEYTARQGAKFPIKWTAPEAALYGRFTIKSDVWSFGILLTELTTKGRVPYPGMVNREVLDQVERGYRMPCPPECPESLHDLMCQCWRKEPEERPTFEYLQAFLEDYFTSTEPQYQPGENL
T3 sequence (P06239 whole entry): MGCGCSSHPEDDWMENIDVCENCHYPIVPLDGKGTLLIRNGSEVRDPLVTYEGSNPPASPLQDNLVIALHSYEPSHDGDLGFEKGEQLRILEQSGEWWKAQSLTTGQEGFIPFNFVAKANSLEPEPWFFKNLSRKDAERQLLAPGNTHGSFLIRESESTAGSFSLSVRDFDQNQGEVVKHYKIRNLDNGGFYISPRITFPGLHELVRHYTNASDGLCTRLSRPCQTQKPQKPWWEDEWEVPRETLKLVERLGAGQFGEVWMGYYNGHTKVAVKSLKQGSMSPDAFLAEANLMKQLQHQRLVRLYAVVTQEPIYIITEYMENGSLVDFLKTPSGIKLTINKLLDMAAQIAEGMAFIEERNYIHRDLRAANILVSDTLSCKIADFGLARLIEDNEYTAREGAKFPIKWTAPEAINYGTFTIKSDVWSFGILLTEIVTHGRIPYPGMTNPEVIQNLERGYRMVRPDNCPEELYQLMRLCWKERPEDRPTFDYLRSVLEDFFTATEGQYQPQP
T1 sequence (P07947 whole entry): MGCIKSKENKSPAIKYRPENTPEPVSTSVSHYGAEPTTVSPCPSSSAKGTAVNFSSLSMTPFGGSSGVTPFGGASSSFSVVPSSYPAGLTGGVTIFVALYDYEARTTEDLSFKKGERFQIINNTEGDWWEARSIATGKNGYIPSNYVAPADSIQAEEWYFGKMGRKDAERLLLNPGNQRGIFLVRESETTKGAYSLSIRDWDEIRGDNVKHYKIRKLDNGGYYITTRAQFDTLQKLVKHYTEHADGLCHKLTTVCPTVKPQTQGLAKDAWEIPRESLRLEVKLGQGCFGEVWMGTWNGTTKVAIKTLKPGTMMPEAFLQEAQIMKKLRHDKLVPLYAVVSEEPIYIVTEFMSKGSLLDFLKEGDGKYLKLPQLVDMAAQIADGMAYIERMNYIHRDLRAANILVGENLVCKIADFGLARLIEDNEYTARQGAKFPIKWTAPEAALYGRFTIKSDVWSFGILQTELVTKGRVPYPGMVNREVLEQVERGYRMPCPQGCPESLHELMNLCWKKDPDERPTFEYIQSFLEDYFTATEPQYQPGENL

| pIC50 (human Yes1 enzyme) | pIC50 (human Src enzyme) | pIC50 (human Lck enzyme) | SMILES |
| --- | --- | --- | --- |
| 8.80 | 7.49 | 7.74 | Cc1cc(Oc2ccccc2F)ccc1-n1ncc(C(=O)c2cc3cc(OCC(F)F)c(NS(=O)(=O)C4CCOCC4)cc3[nH]2)c1N [Example 5-1-325, N-[2-[5-amino-1-[4-(2-fluorophenoxy)-2-methylphenyl]pyrazole-4-carbonyl]-5-(2,2-difluoroethoxy)-1H-indol-6-yl]oxane-4-sulfonamide] |
| 9.07 | 7.27 | 7.60 | Cc1cc(Oc2ccccc2F)ncc1-n1ncc(C(=O)c2cc3cc(OCC(F)F)c(NS(=O)(=O)C4CCOCC4)cc3[nH]2)c1N [Example 5-1-326, N-[2-[5-amino-1-[6-(2-fluorophenoxy)-4-methylpyridin-3-yl]pyrazole-4-carbonyl]-5-(2,2-difluoroethoxy)-1H-indol-6-yl]oxane-4-sulfonamide] |
| 8.14 | 6.04 | 6.57 | COc1cccc(S(=O)(=O)Nc2cc3[nH]c(C(=O)c4cnn(-c5cnc(Oc6c(F)cccc6F)cc5C)c4N)cc3cc2OCC(F)F)c1 [Example 5-1-327, N-[2-[5-amino-1-[6-(2,6-difluorophenoxy)-4-methylpyridin-3-yl]pyrazole-4-carbonyl]-5-(2,2-difluoroethoxy)-1H-indol-6-yl]-3-methoxybenzenesulfonamide] |
| 7.85 | 6.05 | 6.64 | Cc1cc(Oc2c(F)cccc2F)ncc1-n1ncc(C(=O)c2cc3cc(OCC(F)F)c(NS(=O)(=O)c4ccccc4Cl)cc3[nH]2)c1N [Example 5-1-328, N-[2-[5-amino-1-[6-(2,6-difluorophenoxy)-4-methylpyridin-3-yl]pyrazole-4-carbonyl]-5-(2,2-difluoroethoxy)-1H-indol-6-yl]-2-chlorobenzenesulfonamide] |
| 8.05 | 6.14 | 6.82 | COc1ccccc1S(=O)(=O)Nc1cc2[nH]c(C(=O)c3cnn(-c4cnc(Oc5c(F)cccc5F)cc4C)c3N)cc2cc1OCC(F)F [Example 5-1-329, N-[2-[5-amino-1-[6-(2,6-difluorophenoxy)-4-methylpyridin-3-yl]pyrazole-4-carbonyl]-5-(2,2-difluoroethoxy)-1H-indol-6-yl]-2-methoxybenzenesulfonamide] |
| 7.96 | 6.15 | 6.70 | Cc1cc(Oc2c(F)cccc2F)ncc1-n1ncc(C(=O)c2cc3cc(OCC(F)F)c(NS(=O)(=O)c4cc(F)cc(F)c4)cc3[nH]2)c1N [Example 5-1-330, N-[2-[5-amino-1-[6-(2,6-difluorophenoxy)-4-methylpyridin-3-yl]pyrazole-4-carbonyl]-5-(2,2-drfluoroethoxy)-1H-indol-6-yl]-3,5-difluorobenzenesulfonamide] |
| 8.15 | 6.48 | 6.74 | COc1ccc(Cl)c(S(=O)(=O)Nc2cc3[nH]c(C(=O)c4cnn(-c5ccc(Oc6ccccc6F)cc5C)c4N)cc3cc2OCC(F)F)c1 [Example 5-1-331, N-[2-[5-amino-1-[4-(2-fluorophenoxy)-2-methylphenyl]pyrazole-4-carbonyl]-5-(2,2-difluoroethoxy)-1H-indol-6-yl]-2-chloro-5-methoxybenzenesulfonamide] |
| 9.10 | 7.92 | 8.60 | Cc1cc(Oc2c(F)cccc2F)ncc1-n1ncc(C(=O)c2cc3cc(OCC(F)F)c(N4C(=O)NC5(CCNCC5)C4=O)cc3[nH]2)c1N [Example 5-1-332, 3-[2-[5-amino-1-[6-(2,6-difluorophenoxy)-4-methylpyridin-3-yl]pyrazole-4-carbonyl]-5-(2,2-difluoroethoxy)-1H-indol-6-yl]-1,3,8-triazaspiro[4.5]decane-2,4-dione] |
| 8.70 | 6.85 | 7.72 | Cc1cc2cc(C(=O)c3cnn(-c4cnc(Oc5ccccc5F)cc4C)c3N)[nH]c2cc1NS(=O)(=O)C1CCOCC1 [Example 5-1-333, N-[2-[5-amino-1-[6-(2-fluorophenoxy)-4-methylpyridin-3-yl]pyrazole-4-carbonyl]-5-methyl-1H-indol-6-yl]oxane-4-sulfonamide] |
| 8.89 | 7.39 | 8.40 | Cc1cc2cc(C(=O)c3cnn(-c4cnc(Oc5ccccc5F)cc4C)c3N)[nH]c2cc1N1C(=O)NC(C)(C)C1=O [Example 5-1-334, 3-[2-[5-amino-1-[6-(2-fluorophenoxy)-4-methylpyridin-3-yl]pyrazole-4-carbonyl]-5-methyl-1H-indol-6-yl]-5,5-dimethylimidazolidine-2,4-dione] |
| 8.57 | 5.77 | 6.92 | Cc1cc(-n2ncc(C(=O)c3cc4cc(OC5CCN(C6CCCC6)CC5)c(-c5ccccc5C)cc4[nH]3)c2N)ccc1Oc1ccccc1F [Example 5-1-335, [5-amino-1-[4-(2-fluorophenoxy)-3-methylphenyl]pyrazol-4-yl]-[5-(1-cyclopentylpiperidin-4-yl)oxy-6-(2-methylphenyl)-1H-indol-2-yl]methanone] |
| 8.64 | 6.92 | 7.74 | Cc1ccccc1-c1cc2[nH]c(C(=O)c3cnn(-c4cnc(Oc5c(F)cccc5F)cc4C)c3N)cc2cc1OC1CCN(C2CCCC2)CC1 [Example 5-1-337, [5-amino-1-[6-(2,6-difluorophenoxy)-4-methylpyridin-3-yl]pyrazol-4-yl]-[5-(1-cyclopentylpiperidin-4-yl)oxy-6-(2-methylphenyl)-1H-indol-2-yl]methanone] |
| 8.52 | 6.74 | 7.52 | Cc1ccccc1-c1cc2[nH]c(C(=O)c3cnn(-c4cnc(Oc5c(F)cccc5F)cc4C)c3N)cc2cc1OC1CCN(C2CS(=O)(=O)C2)CC1 [Example 5-1-338, [5-amino-1-[6-(2,6-difluorophenoxy)-4-methylpyridin-3-yl]pyrazol-4-yl]-[5-[1-(1,1-dioxothietan-3-yl)piperidin-4-yl]oxy-6-(2-methylphenyl)-1H-indol-2-yl]methanone] |
| 8.24 | 6.27 | 7.13 | Cc1cc(Oc2ccccc2F)ncc1-n1ncc(C(=O)c2cc3cc(SC(F)F)c(NS(=O)(=O)CCCF)cc3[nH]2)c1N [Example 5-1-339, N-[2-[5-amino-1-[6-(2-fluorophenoxy)-4-methylpyridin-3-yl]pyrazole-4-carbonyl]-5-(difluoromethylsulfanyl)-1H-indol-6-yl]-3-fluoropropane-1-sulfonamide] |
| 8.68 | 6.89 | 7.70 | Cc1cc(Oc2ccccc2F)ccc1-n1ncc(C(=O)c2cc3cc(OC(F)F)c(N4CC(C)(C)NS4(=O)=O)cc3[nH]2)c1N [Example 5-1-340, [5-amino-1-[4-(2-fluorophenoxy)-2-methylphenyl]pyrazol-4-yl]-[5-(difluoromethoxy)-6-(4,4-dimethyl-1,1-dioxo-1,2,5-thiadiazolidin-2-yl)-1H-indol-2-yl]methanone] |
| 8.57 | 7.28 | 8.13 | Cc1cc2cc(C(=O)c3cnn(-c4cnc(Oc5c(F)cccc5F)cc4C)c3N)[nH]c2cc1N1C(=O)NC2(CCC2)C1=O [Example 5-1-341, 7-[2-[5-amino-1-[6-(2,6-difluorophenoxy)-4-methylpyridin-3-yl]pyrazole-4-carbonyl]-5-methyl-1H-indol-6-yl]-5,7-diazaspiro[3.4]octane-6,8-dione] |
| 8.77 | 7.32 | 8.28 | Cc1cc2cc(C(=O)c3cnn(-c4cnc(Oc5c(F)cccc5F)cc4C)c3N)[nH]c2cc1N1C(=O)NC2(CCOCC2)C1=O [Example 5-1-342, 3-[2-[5-amino-1-[6-(2,6-difluorophenoxy)-4-methylpyridin-3-yl]pyrazole-4-carbonyl]-5-methyl-1H-indol-6-yl]-8-oxa-1,3-diazaspiro[4.5] decane-2,4-dione] |
| 8.52 | 7.00 | 8.14 | Cc1cc(Oc2c(F)cccc2F)ncc1-n1ncc(C(=O)c2cc3cc(F)c(N4C(=O)NC5(CC5)C4=O)cc3[nH]2)c1N [Example 5-1-343, 6-[2-[5-amino-1-[6-(2,6-difluorophenoxy)-4-methylpyridin-3-yl]pyrazole-4-carbonyl]-5-fluoro-1H-indol-6-yl]-4,6-diazaspiro[2.4] heptane-5,7-dione] |
| 8.33 | 6.82 | 7.89 | Cc1cc(Oc2c(F)cccc2F)ncc1-n1ncc(C(=O)c2cc3cc(F)c(N4C(=O)NC5(CCCC5)C4=O)cc3[nH]2)c1N [Example 5-1-344, 3-[2-[5-amino-1-[6-(2,6-difluorophenoxy)-4-methylpyridin-3-yl]pyrazole-4-carbonyl]-5-fluoro-1H-indol-6-yl]-1,3-diazaspiro[4.4]nonane-2,4-dione] |
| 8.80 | 7.33 | 8.49 | Cc1cc(Oc2c(F)cccc2F)ncc1-n1ncc(C(=O)c2cc3cc(F)c(N4C(=O)NC5(COC5)C4=O)cc3[nH]2)c1N [Example 5-1-345, 7-[2-[5-amino-1-[6-(2,6-difluorophenoxy)-4-methylpyridin-3-yl]pyrazole-4-carbonyl]-5-fluoro-1H-indol-6-yl]-2-oxa-5,7-diazaspiro[3.4] octane-6,8-dione] |
| 8.06 | 6.29 | 6.92 | Cc1cc(Oc2c(F)cccc2F)ncc1-n1ncc(C(=O)c2cc3cc(SC(F)F)c(NS(=O)(=O)C4CCOCC4)cc3[nH]2)c1N [Example 5-1-346, N-[2-[5-amino-1-[6-(2,6-difluorophenoxy)-4-methylpyridin-3-yl]pyrazole-4-carbonyl]-5-(difluoromethylsulfanyl)-1H-indol-6-yl]oxane-4-sulfonamide] |

From patent publication US10479780B2, “Aminopyrazole derivatives” (Chugai Seiyaku Kabushiki Kaisha, priority 2015, dated 2019)
